Experimental data as given in patent EP1878743A2, “Urotensin-II agonists and antagonists” (The Administrators of The Tulane Educational Fund, priority 2000, dated 2002).
Bridge positions count the residues as written; N and C are the ends. Square brackets hold non-standard residues; d marks the D form. Ends that are not written are not given here. Peptide text beside a SMILES is read from it. dDip = N[C@@H](C(=O)O)C(c1ccccc1)c1ccccc1; Phe(4-Cl) = N[C@@H](Cc1ccc(Cl)cc1)C(=O)O; Phe(4-F) = N[C@@H](Cc1ccc(F)cc1)C(=O)O; 2Nal = N[C@@H](Cc1ccc2ccccc2c1)C(=O)O; 3Pal = N[C@@H](Cc1cccnc1)C(=O)O; Tle = CC(C)(C)[C@H](N)C(=O)O; Nal = naphthylalanine

T1: U-II receptors (Rattus norvegicus, UniProt P49684)
T1 construct: from tissue; host or cells: rat thoracic aorta (circular strips / rings)
T1 sequence (P49684 1-386): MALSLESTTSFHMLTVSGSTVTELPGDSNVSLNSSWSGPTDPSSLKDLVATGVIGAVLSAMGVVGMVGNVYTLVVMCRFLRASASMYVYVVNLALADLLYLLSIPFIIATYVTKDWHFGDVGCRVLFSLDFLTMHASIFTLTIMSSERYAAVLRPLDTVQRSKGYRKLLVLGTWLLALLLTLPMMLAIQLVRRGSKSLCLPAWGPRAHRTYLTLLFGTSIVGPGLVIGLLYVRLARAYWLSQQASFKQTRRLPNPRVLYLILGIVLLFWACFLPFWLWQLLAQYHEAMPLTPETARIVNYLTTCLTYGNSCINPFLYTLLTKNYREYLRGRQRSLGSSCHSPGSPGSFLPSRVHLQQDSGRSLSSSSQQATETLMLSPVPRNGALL

T2: U-II receptors (rat thoracic aorta tissue) (rat, UniProt P49684 1-386)
T2 sequence (looked up): T1 sequence (P49684 1-386)

B1: Cpa-D-Cys-Tyr-D-Trp-Lys-Thr-Cys-Nal-NH2 (SEQ ID NO: 9) (peptide)
peptide: XXYXKTCX
modifications: Cpa (p-chlorophenylalanine) at 1; D-Cys at 2; D-Trp at 4; Nal (naphthylalanine) at 8; C-terminal amide

Tested on: U-II Stimulation of Rat Aorta Phasic Contractions
Experiment: not given
Settings: not given
Description: Example 2: Use of Rat Aorta Circular Strip for Assay U-II Antagonists
Male Sprague-Dawley rats (250-350 g), which had been quarantined for 5-7 days prior to the experiments, were sacrificed by decapitation (experiments were approved by the Advisory Committee For Animal Resources, Tulane University School of Medicine). The thoracic aorta was dissected, freed from connective tissue, and cut into rings of about 1.5 mm in width. The rings were suspended in a 15 ml organ bath containing high potassium Kreb's solution (9.15 g/L potassium chloride, 2.1 g/L sodium bicarbonate, 1.0 g/L glucose, 0.16 g/L potassium phosphate monobasic. 0.14 g/L magnesium sulfate (anhydr.), and 0.22 g/L calcium chloride (dihydr.))
Optimal tension was applied (0.2 g) to the tissues and the bath medium was maintained at 37°C and bubbled with a mixture of 95% O2/5% CO2. Prior to mounting in the organ bath, selected preparations were rubbed with a moistened cotton wool swab, in order to remove the endothelial cell layer, and the effect of this procedure was tested using an acetylcholine-relaxation test. (Gibson, A., Br. J. Pharmacol. 91:205 (1987)). The aorta rings were allowed to equilibrate for 90 min. at the optimal tensions. During the equilibration period, the bath solution was replaced every 15 min. Contractile responses of aortae rings to various concentrations of peptides were expressed in volts. Changes in arterial smooth muscle tension were recorded isometrically using a force-displacement transducer (Radnoti), and a AcqKnowledge ACK100 Version 3.2 (BIOPAC Systems, Inc., Santa Barbara, CA.)
In siliconized glass tubes, peptides were dissolved in dionized water at a concentration of 1 µg/1µL (stock solution) and then diluted 1:10 with sterile BSA-saline solution (0.1% BSA, fraction V, Sigma, St. Louis in 0.9% NaCl). All peptide solutions were prepared fresh directly before the experiments. Peptides in the concentration ranges of 10^-6 to 10^-12 M/L in a final volume of 16-80 µL were direcly introduced into the tested organ bath containing Krebs buffer continuously gassed with 95% O, and 5% CO2, and the aorta rings at an optimal resting tension (1 - 0.2g). Peptide-induced changes in tension of the aorta rings were recorded by force-displacement transducers and processed by the computer system BIOPAC Inc., as described above. Each ring was exposed to one peptide concentration only.
Various somatostatin (SRIF) antagonists were discovered to have the ability to block UII-induced phase contractions in the circular rat thoracic aorta strips. […] The polypeptide Cpa-c[D-Cys-Phe-Trp-Lys-Thr-Cys]-ValNH2 was also a strong U-II antagonist with an IC50 of 2nM. Table 1. SRIF Antagonist IC50s (nM) against U-II Stimulation of Rat Aorta Phasic Contractions

IC50 [nM]	Molecule
100	CC(C)(C)[C@@H]1NC(=O)[C@H](CCCCN)NC(=O)[C@@H](Cc2c[nH]c3ccccc23)NC(=O)[C@H](Cc2cccnc2)NC(=O)[C@H](NC(=O)[C@@H](N)Cc2ccc(F)cc2)CSSC[C@@H](C(=O)N[C@@H](Cc2ccc3ccccc3c2)C(N)=O)NC1=O [4Fpa-D-Cys-Pal-D-Trp-Lys-Tle-Cys-Nal-NH2] (H-[Phe(4-F)][dC][3Pal][dW]K[Tle]C[2Nal]-NH2; disulfide 2-7; N-terminus assumed)
1090	CC(C)[C@@H]1NC(=O)[C@H](CCCCN)NC(=O)[C@@H](Cc2c[nH]c3ccccc23)NC(=O)[C@H](Cc2cccnc2)NC(=O)[C@H](NC(=O)[C@@H](N)Cc2ccc(F)cc2)CSSC[C@@H](C(=O)N[C@@H](Cc2ccc3ccccc3c2)C(N)=O)NC1=O [4Fpa-D-Cys-Pal-D-Trp-Lys-Val-Cys-Nal-NH2] (H-[Phe(4-F)][dC][3Pal][dW]KVC[2Nal]-NH2; disulfide 2-7; N-terminus assumed)
10	CC(C)(C)[C@@H]1NC(=O)[C@H](CCCCN)NC(=O)[C@@H](Cc2c[nH]c3ccccc23)NC(=O)[C@H](Cc2cccnc2)NC(=O)[C@H](NC(=O)[C@@H](N)Cc2ccc(Cl)cc2)CSSC[C@@H](C(=O)N[C@@H](Cc2ccc3ccccc3c2)C(N)=O)NC1=O [Cpa-D-Cys-Pal-D-Trp-Lys-Tie-Cys-Nal-NH2] (H-[Phe(4-Cl)][dC][3Pal][dW]K[Tle]C[2Nal]-NH2; disulfide 2-7; N-terminus assumed)
2	C[C@@H](O)[C@@H]1NC(=O)[C@H](CCCCN)NC(=O)[C@H](Cc2c[nH]c3ccccc23)NC(=O)[C@H](Cc2cccnc2)NC(=O)[C@H](NC(=O)[C@@H](N)Cc2ccc(Cl)cc2)CSSC[C@@H](C(=O)N[C@@H](Cc2ccc(Cl)cc2)C(N)=O)NC1=O [Cpa-D-Cys-Pal-Trp-Lys-Thr-Cys-Cpa-NH2]
12	C[C@@H](O)[C@@H]1NC(=O)[C@H](CCCCN)NC(=O)[C@@H](Cc2c[nH]c3ccccc23)NC(=O)[C@H](Cc2ccc(O)cc2)NC(=O)[C@H](NC(=O)[C@@H](N)Cc2ccc(Cl)cc2)CSSC[C@@H](C(=O)N[C@@H](Cc2ccc3ccccc3c2)C(N)=O)NC1=O [Cpa-D-Cys-Tyr-D-Trp-Lys-Thr-Cys-Nal-NH2] (H-[Phe(4-Cl)][dC]Y[dW]KTC[2Nal]-NH2; disulfide 2-7; N-terminus assumed)
~100	CC(C)[C@@H]1NC(=O)[C@H](CCCCN)NC(=O)[C@@H](Cc2c[nH]c3ccccc23)NC(=O)[C@H](Cc2cccnc2)NC(=O)[C@H](NC(=O)[C@@H](N)Cc2ccc(Cl)cc2)CSSC[C@@H](C(=O)N[C@@H](Cc2ccc(Cl)cc2)C(N)=O)NC1=O [Cpa-c[D-Cys-Pal-D-Trp-Lys-Val-Cys]-Cpa-amide] (H-[Phe(4-Cl)][dC][3Pal][dW]KVC[Phe(4-Cl)]-NH2; disulfide 2-7)
1800	CC(C)[C@@H]1NC(=O)[C@H](CCCCN)NC(=O)[C@@H](Cc2c[nH]c3ccccc23)NC(=O)[C@H](Cc2c[nH]cn2)NC(=O)[C@H](NC(=O)[C@@H](N)Cc2ccc3ccccc3c2)CSSC[C@@H](C(=O)N[C@@H](C(N)=O)C(c2ccccc2)c2ccccc2)NC1=O [Nal-D-Cys-His-D-Trp-Lys-Val-Cys-D-Dip-NH2] (H-[2Nal][dC]H[dW]KVC[dDip]-NH2; disulfide 2-7; N-terminus assumed)

Target: U-II receptors (rat thoracic aorta tissue) (rat) (UniProt P49684)
Experiment: cell-based or functional assay
Settings: not given

IC50 against U-II-induced phasic contractions of circular rat thoracic aorta strips [nM]	Molecule
100	Cpa-c[D-Cys-Pal-D-Trp-Lys-Val-Cys]-Cpa-amide (SEQ ID NO: 4) (peptide)

Target: T1, U-II receptors
Experiment: Binding to U-II receptors (rat aorta tissue)
Settings: unit inferred

Kd [nM]	Molecule
240	CC(C)[C@@H]1NC(=O)[C@H](CCCCN)NC(=O)[C@@H](Cc2c[nH]c3ccccc23)NC(=O)[C@H](Cc2cccnc2)NC(=O)[C@H](NC(=O)[C@@H](N)Cc2ccc(Cl)cc2)CSSC[C@@H](C(=O)N[C@@H](Cc2ccc(Cl)cc2)C(N)=O)NC1=O [Cpa-c[D-Cys-Pal-D-Trp-Lys-Val-Cys]-Cpa-amide] (H-[Phe(4-Cl)][dC][3Pal][dW]KVC[Phe(4-Cl)]-NH2; disulfide 2-7)

Target: T2, U-II receptors (rat thoracic aorta …)
Experiment: cell-based or functional assay
Settings: not given

IC50 against U-II-induced phasic contractions of circular rat thoracic aorta strips [nM]	Molecule
2	[Phe(4-Cl)][dC]FWKTCV-NH2 (disulfide 2-7 (inferred)) [Cpa-c[D-Cys-Phe-Trp-Lys-Thr-Cys]-Val-NH2 (SEQ ID NO: 5)]

Target: T2, U-II receptors (rat thoracic aorta …)
Experiment: cell-based or functional assay
Settings: not given
Remark: another data set of the same source

IC50 (nM) against U-II Stimulation of Rat Aorta Phasic Contractions [nM]	Molecule
2	[Phe(4-Cl)][dC][3Pal]WKTC[Phe(4-Cl)]-NH2 (disulfide 2-7 (inferred)) [Cpa-D-Cys-Pal-Trp-Lys-Thr-Cys-Cpa-NH2 (SEQ ID NO: 11)]
12	B1
1800	[Nal][dC]H[dW]KVC[dDip]-NH2 (disulfide 2-7 (inferred)) [Nal-D-Cys-His-D-Trp-Lys-Val-Cys-D-Dip-NH2 (SEQ ID NO: 6)]
100	[Phe(4-F)][dC][3Pal][dW]K[Tle]C[Nal]-NH2 (disulfide 2-7 (inferred)) [4Fpa-D-Cys-Pal-D-Trp-Lys-Tle-Cys-Nal-NH2 (SEQ ID NO: 8)]
1090	[Phe(4-F)][dC][3Pal][dW]KVC[Nal]-NH2 (disulfide 2-7 (inferred)) [4Fpa-D-Cys-Pal-D-Trp-Lys-Val-Cys-Nal-NH2 (SEQ ID NO: 7)]
10	[Phe(4-Cl)][dC][3Pal][dW]K[Tle]C[Nal]-NH2 (disulfide 2-7 (inferred)) [Cpa-D-Cys-Pal-D-Trp-Lys-Tie-Cys-Nal-NH2 (SEQ ID NO: 10)]
